Read-outs that look alike come from different tables or passages of the source.
Legend:
Format in all cases: biochemical
TYK2 = TYK2 (Homo sapiens (Human), UniProt P29597); assay: Purified kinase assay (Z'-LYTE), TYK2
Method: JAK and TYK2 tyrosine phosphorylation activity is measured using the Z′-LYTE™ Technology developed by Invitrogen Corporation (Carlsbad, Calif.). For JAK1, JAK2 and JAK3 the Z′-LYTE™ Kinase Assay Kit-Tyr6 Peptide (part number PV4122) was used. For TYK2 the Z′-LYTE™ Kinase Assay Kit-Tyr6 Peptide (part number PV3192) was used. The Z′-LYTE™ biochemical assay employs a fluorescence resonance energy transfer (FRET) coupled-enzyme format and is based on the differential sensitivity of phosphorylated and non-phosphorylated peptides to proteolytic cleavage. The assay uses a synthetic peptide substrate that is labeled with a donor fluorophore (coumarin) and an acceptor fluorophore (fluorescein) that make up a FRET pair. In the primary reaction (the Kinase Reaction), the kinase transfers the γ-phosphate of ATP to a single tyrosine residue on the substrate, while the presence of a kinase inhibitor in the primary reaction suppresses phosphorylation. In the secondary reaction (the Development Reaction), a site-specific protease (the Development Reagent) is added. The development buffer quenches the Kinase Reaction, while the protease recognizes and cleaves non-phosphorylated Z′-LYTE™ peptide substrate. Cleavage disrupts FRET between the donor and acceptor fluorophores on the non-phosphorylated substrate, while uncleaved, phosphorylated substrate maintains FRET.
To test the ability of candidate molecules to inhibit JAK tyrosine phosphorylation activity, molecules are reconstituted in 100% DMSO and serially diluted 1:10 in polypropylene v-bottom microtiter plates. The candidate molecules are then diluted 1:25 into kinase buffer and 2.5 μl transferred into duplicate wells of a 384 well low volume black microtiter assay plate (Corning, USA). The final DMSO concentration in the assay is 1%. The kinase reaction contains 2.5 μl of a candidate molecule, 5 μl of catalytic domain recombinant Kinase enzyme+Tyr peptide substrate (Invitrogen, CA) and ATP (Invitrogen, CA). The kinase reaction is allowed to proceed for 1 hour at room temperature. The protease reaction is initiated by the addition of Development Reagent (Invitrogen, CA). After 1 hour incubation at room temperature the fluorescence is measured using a FlexStation plate reader (Molecular Devices, Sunnyvale, Calif.). The reader settings used are as follows: Fluorescence mode, endpoint, top read, excitation 400 nm, emission 445 nm and 520 nm, Auto Cutoff 435 nm and 515 nm, PMT sensitivity high, 6 reads per well Inhibition of JAK activity is calculated as the percent phosphorylation of substrate in the presence of inhibitor compared to the percent phosphorylation of substrate in the absence of inhibitor. IC50's were derived using Xlfit 4.3 (IDBS, UK), 4 parameter logistic model 205: Y=(A+((B−A)/(1+((C/x)^D)))).

JAK3 = JAK3 (Homo sapiens (Human), UniProt P52333); assay: Purified kinase assay (Z'-LYTE), JAK3
Chain of JAK3 (P52333 822-1111): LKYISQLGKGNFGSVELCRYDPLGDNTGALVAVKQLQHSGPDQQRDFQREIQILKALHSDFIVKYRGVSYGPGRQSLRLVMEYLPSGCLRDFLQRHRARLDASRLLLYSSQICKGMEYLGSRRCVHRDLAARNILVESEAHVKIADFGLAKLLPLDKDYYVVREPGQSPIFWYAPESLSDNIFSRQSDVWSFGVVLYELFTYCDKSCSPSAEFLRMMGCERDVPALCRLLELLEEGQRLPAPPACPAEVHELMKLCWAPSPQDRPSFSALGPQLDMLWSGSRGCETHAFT
Procedure, shortened: (§1)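 Catalytic-domain recombinant kinase with Tyr6 peptide (a separate Tyr6 kit for TYK2) and ATP, 1% DMSO final, reacted 1 h at room temperature. Z′-LYTE FRET read after 1 h protease development (ex 400, em 445/520 nm). Inhibition computed from percent substrate phosphorylation versus no inhibitor; IC50 from 4-parameter logistic fit.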

JAK1 = JAK1 (Homo sapiens (Human), UniProt P23458); assay: Purified kinase assay (Z'-LYTE), JAK1
Chain of JAK1 (P23458 875-1153): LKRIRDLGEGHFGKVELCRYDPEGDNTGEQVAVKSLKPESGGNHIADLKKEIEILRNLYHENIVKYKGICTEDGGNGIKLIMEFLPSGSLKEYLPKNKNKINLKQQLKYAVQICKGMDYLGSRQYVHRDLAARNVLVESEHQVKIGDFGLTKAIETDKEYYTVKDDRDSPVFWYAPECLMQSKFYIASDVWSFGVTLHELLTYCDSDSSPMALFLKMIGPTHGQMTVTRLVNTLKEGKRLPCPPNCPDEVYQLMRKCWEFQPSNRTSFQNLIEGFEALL
Procedure, shortened: as §1

JAK2 = JAK2 (Homo sapiens (Human), UniProt O60674); assay: Purified kinase assay (Z'-LYTE), JAK2
Chain of JAK2 (O60674 849-1124): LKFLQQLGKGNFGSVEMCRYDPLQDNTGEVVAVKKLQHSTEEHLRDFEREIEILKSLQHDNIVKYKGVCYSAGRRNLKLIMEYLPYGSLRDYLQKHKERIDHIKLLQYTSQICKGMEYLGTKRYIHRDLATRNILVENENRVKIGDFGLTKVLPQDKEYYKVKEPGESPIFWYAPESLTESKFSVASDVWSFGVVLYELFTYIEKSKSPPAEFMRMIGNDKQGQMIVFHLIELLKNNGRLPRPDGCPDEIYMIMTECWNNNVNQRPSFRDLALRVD
Procedure, shortened: as §1

Chain of TYK2 (P29597 897-1176): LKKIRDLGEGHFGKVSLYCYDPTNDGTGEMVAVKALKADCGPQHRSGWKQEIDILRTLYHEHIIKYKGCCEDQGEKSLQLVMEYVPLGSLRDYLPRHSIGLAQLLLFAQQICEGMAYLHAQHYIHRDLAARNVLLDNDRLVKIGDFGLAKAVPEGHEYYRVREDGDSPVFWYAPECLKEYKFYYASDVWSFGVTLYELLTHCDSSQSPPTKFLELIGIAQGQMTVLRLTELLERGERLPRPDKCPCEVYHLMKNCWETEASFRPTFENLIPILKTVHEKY

| Compound | IC50 (TYK2; Table 1, read-out: Tyk2 IC50) [nM] | IC50 (JAK3; Table 1, read-out: JAK3 IC50) [nM] | IC50 (JAK1; Table 1, read-out: JAK1 IC50) [nM] | IC50 (JAK2; Table 1, read-out: JAK2 IC50) [nM] | IC50 (TYK2; Table 2, read-out: TYK2) [nM] | IC50 (JAK3; Table 2, read-out: JAK3) [nM] | IC50 (JAK1; Table 2, read-out: JAK1) [nM] | IC50 (JAK2; Table 2, read-out: JAK2) [nM] |
| --- | --- | --- | --- | --- | --- | --- | --- | --- |
| CC(=O)N1CCN(c2ccc(Nc3cc(NCc4ccccc4)c(C(N)=O)nn3)cc2)CC1 [Compound 5, 6-((4-(4-acetylpiperazin-1-yl)phenyl)amino)-4-(benzylamino)-pyridazine-3-carboxamide] | 100 to 1000 | 10 to 100 | > 1000 | 100 to 1000 |  |  |  |  |
| CC(=O)N1CCN(c2ccc(Nc3cc(NCc4ccccc4F)c(C(N)=O)nn3)cc2)CC1 [Compound 18, 6-((4-(4-acetylpiperazin-1-yl)phenyl)amino)-4-((2-fluorobenzyl)amino)pyridazine-3-carboxamide] | 100 to 1000 | 1 to 10 | 100 to 1000 | 100 to 1000 | 100 to 1000 | 1 to 10 | > 1000 | 100 to 1000 |
| CC(=O)N1CCN(c2ccc(Nc3cc(NCc4cccc(F)c4)c(C(N)=O)nn3)cc2)CC1 [Compound 19] | 100 to 1000 | 1 to 10 | > 1000 | 100 to 1000 |  |  |  |  |
| CC(=O)N1CCN(c2ccc(Nc3cc(NCc4cccs4)c(C(N)=O)nn3)cc2)CC1 [Compound 21] | 100 to 1000 | 10 to 100 | > 1000 | 100 to 1000 |  |  |  |  |
| CC(=O)N1CCN(c2ccc(Nc3cc(NCc4ccccc4C)c(C(N)=O)nn3)cc2)CC1 [Compound 23] | 100 to 1000 | 1 to 10 | 100 to 1000 | 100 to 1000 |  |  |  |  |
| CCC(=O)N1CCN(c2ccc(Nc3cc(NCc4ccccc4F)c(C(N)=O)nn3)cc2)CC1 [Compound 29] | 100 to 1000 | 10 to 100 | > 1000 | 100 to 1000 |  |  |  |  |
| Cc1cc(Nc2cc(NCc3cccc(F)c3F)c(C(N)=O)nn2)ccc1C(=O)N1CCCC1 [Compound 42] | 100 to 1000 | 1 to 10 | 100 to 1000 | 10 to 100 |  |  |  |  |
| NC(=O)c1nnc(Nc2cccc(OCCN3CCCC3)c2)cc1NCc1cccc(F)c1 [Compound 56] | > 1000 | 10 to 100 | > 1000 | 100 to 1000 |  |  |  |  |
| CC(=O)N1CCN(c2ccc(Nc3cc(NC4(c5ccccc5)CC4)c(C(N)=O)nn3)cc2)CC1 [Compound 57] | > 1000 | 10 to 100 | > 1000 | > 1000 |  |  |  |  |
| COc1cccc(CNc2cc(Nc3ccc(N4CCN(C(C)=O)CC4)cc3)nnc2C(N)=O)c1 [Compound 58] | > 1000 | 10 to 100 | > 1000 | 100 to 1000 |  |  |  |  |
| CN(C)C(=O)c1ccc(Nc2cc(NCc3cccc(F)c3)c(C(N)=O)nn2)cc1 [Compound 59] | > 1000 | 10 to 100 | > 1000 | 100 to 1000 |  |  |  |  |
| Cc1cc(Nc2cc(NCc3cccc(F)c3)c(C(N)=O)nn2)ccc1C(=O)N(C)C [Compound 60] | > 1000 | 10 to 100 | > 1000 | 100 to 1000 |  |  |  |  |
| Cc1cc(Nc2cc(NCc3cccc(F)c3)c(C(N)=O)nn2)ccc1C(=O)N1CCCC1 [Compound 61] | 100 to 1000 | 1 to 10 | > 1000 | 10 to 100 |  |  |  |  |
| NC(=O)c1nnc(Nc2cnn(C3CCCC3)c2)cc1NCc1cccc(F)c1F [Compound 116] |  | 10 to 100 | > 1000 | 100 to 1000 |  |  |  |  |
| NC(=O)c1nnc(Nc2cnn(CC3CC3)c2)cc1NCc1cccc2ccsc12 [Compound 117] |  | 10 to 100 | 100 to 1000 | 10 to 100 |  |  |  |  |
| NC(=O)c1nnc(Nc2cnn(CC3CC3)c2)cc1NCc1cccc(F)c1F [Compound 118] |  | 10 to 100 | 100 to 1000 | 100 to 1000 |  |  |  |  |

| Compound | IC50 (TYK2; Table 1, read-out: Tyk2 IC50) [nM] | IC50 (JAK3; Table 1, read-out: JAK3 IC50) [nM] | IC50 (JAK1; Table 1, read-out: JAK1 IC50) [nM] | IC50 (JAK2; Table 1, read-out: JAK2 IC50) [nM] | IC50 (TYK2; Table 2, read-out: TYK2) [nM] | IC50 (JAK3; Table 2, read-out: JAK3) [nM] | IC50 (JAK1; Table 2, read-out: JAK1) [nM] | IC50 (JAK2; Table 2, read-out: JAK2) [nM] |
| --- | --- | --- | --- | --- | --- | --- | --- | --- |
| NC(=O)c1nnc(Nc2cnn(CC3CC3)c2)cc1NCc1cccc(F)c1 [Compound 119] |  | 10 to 100 | > 1000 | 100 to 1000 |  |  |  |  |
| CCn1cc(Nc2cc(NCc3cccc(F)c3F)c(C(N)=O)nn2)cn1 [Compound 120] |  | 10 to 100 | > 1000 | 100 to 1000 |  |  |  |  |
| NC(=O)c1nnc(Nc2cnn(CC3CCOCC3)c2)cc1NCc1cccc2ccsc12 [Compound 121] |  | 1 to 10 | 100 to 1000 | 10 to 100 |  |  |  |  |
| CCn1cc(Nc2cc(NCc3cccc4ccsc34)c(C(N)=O)nn2)cn1 [Compound 122] |  | 1 to 10 | 100 to 1000 | 10 to 100 |  |  |  |  |
| CCn1cc(Nc2cc(NCc3cccc(F)c3)c(C(N)=O)nn2)cn1 [Compound 123] |  | 10 to 100 | > 1000 | 100 to 1000 |  |  |  |  |
| NC(=O)c1nnc(Nc2cnn(CC3CCOCC3)c2)cc1NCc1cccc(F)c1F [Compound 124] |  | 1 to 10 | > 1000 | 100 to 1000 |  |  |  |  |
| CC(=O)N1CCC(Cn2cc(Nc3cc(NCc4cccc5ccsc45)c(C(N)=O)nn3)cn2)CC1 [Compound 125] |  | 1 to 10 | 100 to 1000 | 10 to 100 |  |  |  |  |
| CC(=O)N1CCC(Cn2cc(Nc3cc(NCc4cccc(F)c4F)c(C(N)=O)nn3)cn2)CC1 [Compound 126] |  | 1 to 10 | > 1000 | 100 to 1000 |  |  |  |  |
| CC(=O)N1CCC(Cn2cc(Nc3cc(NCc4cccc(F)c4)c(C(N)=O)nn3)cn2)CC1 [Compound 127] |  | 10 to 100 | > 1000 | 100 to 1000 |  |  |  |  |
| CCC(=O)N1CCC(Cn2cc(Nc3cc(NCc4cccc5ccsc45)c(C(N)=O)nn3)cn2)CC1 [Compound 128] |  | 1 to 10 | 100 to 1000 | 10 to 100 |  |  |  |  |
| CCC(=O)N1CCC(Cn2cc(Nc3cc(NCc4cccc(F)c4F)c(C(N)=O)nn3)cn2)CC1 [Compound 129] |  | 1 to 10 | 100 to 1000 | 100 to 1000 |  |  |  |  |
| CCC(=O)N1CCC(Cn2cc(Nc3cc(NCc4cccc(F)c4)c(C(N)=O)nn3)cn2)CC1 [Compound 130] |  | 10 to 100 | > 1000 | 100 to 1000 |  |  |  |  |
| CN(C)C(=O)Cn1cc(Nc2cc(NCc3cccc4ccsc34)c(C(N)=O)nn2)cn1 [Compound 131] |  | 10 to 100 | 100 to 1000 | 100 to 1000 |  |  |  |  |
| CS(=O)(=O)Cc1ccc(Nc2cc(NCc3cccc(-c4ccncc4)c3)c(C(N)=O)nn2)cc1 [Compound 132] |  | 10 to 100 | > 1000 | > 1000 |  |  |  |  |
| CN(C)C(=O)N1CCC(Cn2cc(Nc3cc(NCc4cccc(F)c4F)c(C(N)=O)nn3)cn2)CC1 [Compound 133] |  | 1 to 10 | > 1000 | 100 to 1000 |  |  |  |  |

Reference: US9834548B2, “Pyridazine compounds as JAK inhibitors” (Portola Pharmaceuticals, Inc., priority 2014, dated 2017)
